According to patent US12653191B2, “Active compound combinations” (Bayer Aktiengesellschaft, priority 2020, dated 2026):
Like-named read-outs stand apart in the source and are kept apart here.

Columns and labels:
Diaporthe citri [1] = assay: in vitro-Test with fungal microorganisms, Method B (tables F12-F15); format: cell-based
In short: (§1)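 Efficacy scale: 0% means growth equal to the untreated control, 100% means none detected. Compounds are dried from methanol with emulsifier before adding inoculated growth medium; incubation at 20° C., 85% relative humidity for 3 to 7 days precedes photometric inhibition readout.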

Fusarium culmorum [2] = assay: in vitro-Test with fungal microorganisms, Method A (tables G1-G4); format: cell-based; details: alone
In short: (§2)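 Growth inhibition was measured photometrically at 620 nm 3–5 days after application, with 100% efficacy meaning no growth and 0% meaning growth equal to the untreated control. Fungal spore or mycelium suspension in potato dextrose broth was added onto solvent-evaporated compound and incubated at 20° C and 85% relative humidity.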

[3] = system: Colletotrichum lindemuthianum; assay: in vitro-Test with fungal microorganisms, Method A (tables D1-D8); format: cell-based; details: Colletotrichum lindemuthianum, read-out: Efficacy %
In short: as §2

Cordana musae [4] = assay: in vitro-Test with fungal microorganisms, Method B (tables E9-E16); format: cell-based; details: Neocordana musae, single active, read-out: Efficacy
In short: as §1

[5] = system: Ustilago segetum var. avenae; assay: in vitro-Test with fungal microorganisms, Method B (tables I6-I11); format: cell-based; details: read-out: Efficacy %
In short: as §1

Alternaria alternata = assay: in vitro-Test with fungal microorganisms, Method B (tables A13-A22); format: cell-based; details: Alternaria alternata, read-out: Efficacy
In short: as §1

Parastagonospora nodorum [6] = assay: in vitro-Test with fungal microorganisms, Method B (tables H5-H8); format: cell-based; details: Parastagonospora nodorum, read-out: Efficacy
In short: as §1

Cordana musae [7] = assay: in vitro-Test with fungal microorganisms, Method A (tables E1-E8); format: cell-based; details: Neocordana musae, read-out: Efficacy %
In short: as §2

Botrytis cinerea [8] = assay: in vitro-Test with fungal microorganisms, Method A (tables B1-B14); format: cell-based; details: Botrytis cinerea
In short: as §2

Colletotrichum coccodes = assay: in vitro-Test with fungal microorganisms, Method B (tables J1-J11); format: cell-based; details: Colletotrichum coccodes, read-out: Efficacy %
In short: as §1

Fusarium culmorum [9] = assay: in vitro-Test with fungal microorganisms, Method B (tables G5-G15); format: cell-based; details: Fusarium culmorum, read-out: Efficacy
In short: as §1

Botrytis cinerea [10] = assay: in vitro-Test with fungal microorganisms, Method B (tables B15-B18); format: cell-based; details: Botrytis cinerea, read-out: Efficacy %
In short: as §1

Cercospora beticola [11] = assay: in vitro-Test with fungal microorganisms, Method B (tables C11-C20); format: cell-based; details: Cercospora beticola, single compound, read-out: Efficacy %
In short: as §1

Diaporthe citri [12] = assay: in vitro-Test with fungal microorganisms, Method A (tables F1-F11); format: cell-based
In short: as §2

Cercospora beticola [13] = assay: in vitro-Test with fungal microorganisms, Method A (tables C1-C10); format: cell-based
In short: as §2

Alternaria alternate = assay: in vitro-Test with fungal microorganisms, Method A (tables A1-A12); format: cell-based, Alternaria alternata; details: Alternaria, applied alone, read-out: Efficacy %
In short: as §2

Parastagonospora nodorum [14] = assay: in vitro-Test with fungal microorganisms, Method A (tables H1-H4); format: cell-based
Protocol: Example: In Vitro-Test with Fungal Microorganisms
Wells of 96-well microtiter plates are filled with 10 μl of a preparation of test compound or compound combination in methanol+emulsifier alkylaryl-polyglycol-ether. Thereafter, the solvent is evaporated in a hood. At the next step, 100 μl of liquid potato dextrose medium is given into each well, that has been amended with an appropriate concentration of spores or mycelium suspension of the test fungus.
With the aid of a photometer, the extinction in all wells is measured at the wavelength of 620 nm.
The microtiter plates are incubated at 20° C. and 85% relative humidity. The inhibition of growth is determined again photometrically 3-5 days after the application. Efficacy is calculated in relation to the untreated control, 0% efficacy means fungal growth as high as in untreated control while 100% efficacy means no fungal growth is measured.
The data in tables A1 to A12, B1 to B14, C1 to C10, D1 to D8, E1 to E8, F1 to F11, G1 to G4, H1 to H4 and I1 to I5 were collected according to Method A. The data in tables A13 to A22, B15 to B18, C11 to C20, E9 to E16, F12 to F15, G5 to G15, H5 to H8, I6 to I11 and J1 to J11 were collected according to Method B.

[15] = Diaporthe citri, applied alone, read-out: Efficacy
[16] = Diaporthe citri, single active, read-out: Efficacy

SMILES: Fc1ccc(Oc2ccnc3cc(Cl)cc(Cl)c23)cc1 [(13.005) quinoxyfen, quinoxyfen]
- Efficacy (Diaporthe citri [1]; Table F13, 0.08 ppm alone): 0%
- Efficacy (Diaporthe citri [1]; Table F13, 2 ppm alone): 24%
- Efficacy (Diaporthe citri [1]; Table F15, 0.4 ppm alone): 0%
- Efficacy (Diaporthe citri [1]; Table F15, 2 ppm alone): 13%
- Efficacy (Diaporthe citri [1]; Table F15, 10 ppm alone): 76%
- Efficacy (Fusarium culmorum [2]; 10.0 ppm): 0%
- inhibition of growth at 0.08 ppm (Fusarium culmorum [2]; Fusarium culmorum, 0.08 ppm, read-out: Efficacy): 0%
- inhibition of growth at 10 ppm (Fusarium culmorum [2]; Fusarium culmorum, 10.0 ppm, read-out: Efficacy): 0%
- inhibition of growth at 0.08 ppm ([3]; mixing partner alone, 0.08 ppm): 0%
- inhibition of growth at 0.4 ppm ([3]; mixing partner alone, 0.4 ppm): 0%
- inhibition of growth at 2 ppm ([3]; mixing partner alone, 2.0 ppm): 0%
- inhibition of growth at 0.08 ppm ([3]; single active at 0.08 ppm): 1%
- inhibition of growth at 0.4 ppm ([3]; single active at 0.4 ppm): 0%
- inhibition of growth at 2 ppm ([3]; single active at 2.0 ppm): 0%
- inhibition of growth at 10 ppm ([3]; single active at 10.0 ppm): 24%
- inhibition of growth at 0.08 ppm (Cordana musae [4]; 0.08 ppm): 0%
- inhibition of growth at 0.4 ppm (Cordana musae [4]; 0.4 ppm): 0%
- inhibition of growth at 10 ppm (Cordana musae [4]; 10 ppm): 2%
- inhibition of growth at 0.08 ppm ([5]; 0.08 ppm): 0%
- inhibition of growth at 2 ppm ([5]; 2 ppm): 0%
- inhibition of growth at 10 ppm ([5]; 10 ppm): 9%
- inhibition of growth at 10 ppm (Alternaria alternata; single compound, 10 ppm): 30%
- inhibition of growth at 0.08 ppm (Parastagonospora nodorum [6]; 0.08 ppm): 5%
- inhibition of growth at 0.4 ppm (Parastagonospora nodorum [6]; 0.4 ppm): 4%
- inhibition of growth at 2 ppm (Parastagonospora nodorum [6]; 2 ppm): 1%
- inhibition of growth at 10 ppm (Parastagonospora nodorum [6]; 10 ppm): 33%
- inhibition of growth at 0.4 ppm (Cordana musae [7]; mixing partner alone): 0%
- inhibition of growth at 2 ppm (Cordana musae [7]; mixing partner alone): 0%
- inhibition of growth at 10 ppm (Cordana musae [7]; mixing partner alone): 0%
- inhibition of growth at 0.08 ppm (Cordana musae [7]; single substance, 0.08 ppm): 0%
- inhibition of growth at 0.4 ppm (Cordana musae [7]; single substance): 0%
- inhibition of growth at 2 ppm (Cordana musae [7]; single substance): 0%
- inhibition of growth at 10 ppm (Cordana musae [7]; single substance): 34%
- inhibition of growth at 0.4 ppm (Botrytis cinerea [8]; alone, 0.4 ppm, read-out: Efficacy %): 0%
- inhibition of growth at 0.08 ppm (Colletotrichum coccodes; 0.08 ppm): 0%
- inhibition of growth at 0.4 ppm (Colletotrichum coccodes; 0.4 ppm): 0%
- inhibition of growth at 2 ppm (Colletotrichum coccodes; 2 ppm): 48%
- inhibition of growth at 0.08 ppm (Colletotrichum coccodes; single active compound at 0.08 ppm): 0%
- inhibition of growth at 0.4 ppm (Colletotrichum coccodes; single active compound at 0.4 ppm): 0%
- inhibition of growth at 2 ppm (Colletotrichum coccodes; single active compound at 2 ppm): 18%
- inhibition of growth at 10 ppm (Colletotrichum coccodes; single active compound at 10 ppm): 28%
- inhibition of growth at 0.08 ppm (Fusarium culmorum [9]; single active compound, 0.08 ppm): 0%
- inhibition of growth at 0.4 ppm (Fusarium culmorum [9]; single active compound, 0.4 ppm): 2%
- inhibition of growth at 10 ppm (Fusarium culmorum [9]; single active compound, 10 ppm): 8%
- inhibition of growth at 0.08 ppm (Botrytis cinerea [10]; 0.08 ppm alone): 0%
- inhibition of growth at 0.4 ppm (Botrytis cinerea [10]; 0.4 ppm alone): 0%
- inhibition of growth at 0.4 ppm (Cercospora beticola [11]; 0.4 ppm): 0%
- inhibition of growth at 2 ppm (Cercospora beticola [11]; 2 ppm): 0%
- inhibition of growth at 10 ppm (Cercospora beticola [11]; 10 ppm): 4%
- inhibition of growth at 0.08 ppm (Diaporthe citri [12]; Diaporthe citri, Table F10, 0.08 ppm alone, read-out: Efficacy): 52%
- inhibition of growth at 0.4 ppm (Diaporthe citri [12]; Diaporthe citri, Table F10, 0.4 ppm alone, read-out: Efficacy): 6%
- inhibition of growth at 2 ppm (Diaporthe citri [12]; Diaporthe citri, Table F10, 2.0 ppm alone, read-out: Efficacy): 10%
- inhibition of growth at 10 ppm (Diaporthe citri [12]; Diaporthe citri, Table F10, 10.0 ppm alone, read-out: Efficacy): 20%
- inhibition of growth at 0.4 ppm (Diaporthe citri [12]; Diaporthe citri, applied alone, 0.4 ppm, read-out: Efficacy): 15%
- inhibition of growth at 10 ppm (Diaporthe citri [12]; Diaporthe citri, applied alone, 10.0 ppm, read-out: Efficacy): 41%
- Efficacy (Diaporthe citri [12]; applied alone, 2.0 ppm): 0%
- inhibition of growth at 0.08 ppm (Cercospora beticola [13]; Cercospora beticola, 0.08 ppm alone, read-out: Efficacy %): 10%
- inhibition of growth at 0.4 ppm (Cercospora beticola [13]; Cercospora beticola, 0.4 ppm alone, read-out: Efficacy %): 0%
- inhibition of growth at 2 ppm (Cercospora beticola [13]; Cercospora beticola, 2.0 ppm alone, read-out: Efficacy %): 4%
- inhibition of growth at 10 ppm (Cercospora beticola [13]; Cercospora beticola, 10.0 ppm alone, read-out: Efficacy %): 34%

SMILES: Cc1cc(C)nc(Nc2ccccc2)n1 [(7.005) pyrimethanil, pyrimethanil]
- inhibition of growth at 0.8 ppm ([3]; single active at 0.8 ppm): 1%
- inhibition of growth at 4 ppm ([3]; single active at 4.0 ppm): 0%
- inhibition of growth at 20 ppm ([3]; single active at 20.0 ppm): 16%
- inhibition of growth at 0.8 ppm (Cordana musae [4]; 0.8 ppm): 40%
- inhibition of growth at 0.8 ppm ([5]; 0.8 ppm): 18%
- inhibition of growth at 4 ppm ([5]; 4 ppm): 42%
- inhibition of growth at 20 ppm ([5]; 20 ppm): 49%
- inhibition of growth at 0.8 ppm (Alternaria alternata): 96%
- inhibition of growth at 0.8 ppm (Alternaria alternata; single compound): 96%
- inhibition of growth at 20 ppm (Alternaria alternata; single compound, 20 ppm): 100%
- inhibition of growth at 4 ppm (Alternaria alternate; 4 ppm): 93%
- inhibition of growth at 20 ppm (Alternaria alternate; 20 ppm): 82%
- inhibition of growth at 4 ppm (Cordana musae [7]; mixing partner alone): 24%
- inhibition of growth at 20 ppm (Cordana musae [7]; mixing partner alone): 4%
- inhibition of growth at 4 ppm (Cordana musae [7]; single substance): 0%
- inhibition of growth at 20 ppm (Cordana musae [7]; single substance): 24%
- inhibition of growth at 4 ppm (Botrytis cinerea [8]; read-out: Efficacy): 100%
- inhibition of growth at 20 ppm (Botrytis cinerea [8]; read-out: Efficacy): 100%
- inhibition of growth at 0.8 ppm (Botrytis cinerea [8]; alone, 0.8 ppm, read-out: Efficacy %): 100%
- inhibition of growth at 4 ppm (Botrytis cinerea [8]; alone, read-out: Efficacy %): 100%
- inhibition of growth at 20 ppm (Botrytis cinerea [8]; alone, read-out: Efficacy %): 100%
- Efficacy (Parastagonospora nodorum [14]; 0.8 ppm): 100%
- Efficacy (Parastagonospora nodorum [14]; 20.0 ppm): 100%
- inhibition of growth at 0.8 ppm (Colletotrichum coccodes; single active compound at 0.8 ppm): 25%
- inhibition of growth at 0.8 ppm (Fusarium culmorum [9]; alone): 5%
- inhibition of growth at 0.8 ppm (Fusarium culmorum [9]; single active compound): 8%
- inhibition of growth at 4 ppm (Fusarium culmorum [9]; single active compound, 4 ppm): 16%
- inhibition of growth at 20 ppm (Fusarium culmorum [9]; single active compound, 20 ppm): 24%
- inhibition of growth at 0.8 ppm (Botrytis cinerea [10]; 0.8 ppm alone): 89%
- inhibition of growth at 4 ppm (Botrytis cinerea [10]; 4 ppm alone): 95%
- inhibition of growth at 4 ppm (Diaporthe citri [12]; [15]): 97%
- inhibition of growth at 20 ppm (Diaporthe citri [12]; [15]): 100%
- inhibition of growth at 0.8 ppm (Diaporthe citri [12]; Diaporthe citri, single active, 0.8 ppm, read-out: Efficacy): 0%
- inhibition of growth at 4 ppm (Diaporthe citri [12]; [16]): 97%
- inhibition of growth at 20 ppm (Diaporthe citri [12]; [16]): 100%
- Efficacy % (Cercospora beticola [13]; 20.0 ppm): 100%
- inhibition of growth at 0.8 ppm (Cercospora beticola [13]; Cercospora beticola, 0.8 ppm alone, read-out: Efficacy %): 10%
- inhibition of growth at 0.8 ppm (Cercospora beticola [13]; Cercospora beticola, 0.8 ppm, read-out: Efficacy %): 20%
- inhibition of growth at 4 ppm (Cercospora beticola [13]; Cercospora beticola, 4.0 ppm alone, read-out: Efficacy %): 98%
- inhibition of growth at 4 ppm (Cercospora beticola [13]; Cercospora beticola, 4.0 ppm, read-out: Efficacy %): 100%
